From US7326730B2, “Aminoadamantane derivatives as therapeutic agents” (Adamas Pharmaceuticals, Inc., priority 2000, dated 2008)
Entries after “also recorded” stand apart in the source; their conditions may differ.

Legend:
cerebrocortical neurons = test: In vitro model of mild NMDA-induced damage leading to apoptosis of cerebrocortical neurons; type: cell-based
Method: Cerebrocortical cultures were exposed to 300 μM NMDA for 20 min with or without various concentrations of compound 7. The next day cultures were analyzed by neuronal apoptosis as described in Example 19.
Under these conditions (300 μM NMDA exposure for 20 min, followed by washout), neuronal apoptosis was monitored 24 hours later by propidium iodide uptake and morphology of fixed, permeabilized neurons, among other techniques (Bonfoco et al., Proc Natl Acad Sci USA (1995) 92: 7162). NMDA induced about 20% apoptosis of neurons, and that 25-100 μM compound 7 afforded protection from this damage (P<0.001, FIG. 5).

C57B1/6 mice = test: Murine cerebral ischemia model (intraluminal suture, 2 hr MCA occlusion, TTC staining); type: in vivo; conditions: loading dose 100 mg/kg i.p., maintenance 40 mg/kg i.p. every 12 hr, first dose 2 hr after MCA occlusion; TTC staining at 48 hr; P<0.03 from control, P<0.05 from memantine; hydrochloride
Method: The intraluminal suture technique was used to produce a 2 hr occlusion of the middle cerebral artery (MCA), following the same protocol for focal cerebral ischemia/reperfusion as published previously (Chen, et al., Neuroscience (1998) 86: 1121). However, here C57B1/6 mice were used instead of rats. […] To produce a neuroprotective concentration of compound 7, the loading dose was 100 mg/kg i.p. and the maintenance dose was 40 mg/kg i.p. every 12 hr. In each case, drug or vehicle control was initially administered 2 hr after MCA occlusion. […] The animals were sacrificed and analyzed with TTC staining 48 hr after MCA occlusion (Chen, et al., Neuroscience (1998) 86: 1121).

[1] = tested on: precontracted aortic vessel; test: Relaxation of norepinephrine-precontracted, endothelium-denuded thoracic aorta rings; set-up: species or system rabbits; conditions: for effect on precontracted blood vessel: compared to solvent (EtOH) alone
Method: New Zealand white female rabbits weighing 3-4 kilograms were anesthetized with sodium pentobarbital, 13 milligram per kilogram. Descending thoracic aorta were isolated, the vessels were cleaned of adherent tissue and the endothelium was removed by a gentle rubbing with a cotton-tipped applicator inserted into the lumen. The vessels were cut into 5 millimeter rings and mounted on stirrups connected to transducers by which changes in isometric tension were recorded (model TO3C, Grass Instruments, Quincy, Mass.). Vessel rings were suspended in 20 mL of oxygenated Krebs buffer at 37° C. and sustained contractions were induced with 1 μM norepinephrine. The vessels were then relaxed in a dose-dependent fashion (10^−9 through 10^−5 M compound 8). In some experiments vessels were pretreated with methylene blue or hemoglobin to block relaxations.
Relaxations were attenuated by methylene blue (c) and hemoglobin (d) indicating an NO-related effect. (b) is a control with solvent.

[2] = loading dose 20 mg/kg i.p., maintenance dose 1 mg/kg/12 hours; previously shown (Chen et al. 1998); cited from earlier work
[3] = rabbit aortic rings precontracted with 1 μM norepinephrine, 10^−9 through 10^−5 M tested

CC12CC3(C)CC(N)(C1)CC(O[N+](=O)[O-])(C2)C3.Cl [compound 7, 1-amino-3,5-dimethyl-7-nitrateadamantane hydrochloride]
concentration affording protection from NMDA-induced neuronal apoptosis (cerebrocortical neurons; 300 μM NMDA for 20 min, washout, apoptosis monitored 24 hours later by propidium iodide uptake and morphology, NMDA induced about 20% apoptosis, P<0.001): 25 to 100 µM | inhibition of NMDA induced apoptosis in cerebrocortical neurons (cerebrocortical neurons; 300 μM NMDA for 20 min with various concentrations of compound, dose-dependent, P<0.001, n=3 cultures): largely prevented | cerebral damage after stroke (neuroprotection) (C57B1/6 mice): more neuroprotective than memantine; also recorded: effective in decreasing cerebral damage after stroke | effect on precontracted blood vessel at 10 microM ([1]; FIG. 8, 10 microM concentration): modest relaxation

CC(=O)NC12CC3(C)CC(C)(C1)CC(O[N+](=O)[O-])(C3)C2 [compound 8, 1-acetamido-3,5-dimethyl-7-nitrateadamantane]
concentration at which complete relaxation was achieved [1, 3]: 10^−6 M | concentration at which relaxations were seen [1, 3]: 10^−8 M | relaxations after pretreatment with hemoglobin ([1]; vessels pretreated with hemoglobin): attenuated | relaxations after pretreatment with methylene blue ([1]; vessels pretreated with methylene blue): attenuated

CC12CC3(C)CC(N)(C1)CC(O)(C2)C3.Cl [compound 9, 1-amino-3,5-dimethyl-7-hydroxyadamantane hydrochloride]
effect on precontracted blood vessel ([1]; FIG. 8, hydrochloride): either no effect or slight contractions of blood vessels; also recorded: either no effect or slight blood vessel contractions

CC12CC3(C)CC(O)(C1)CC(N(Cc1ccccc1)Cc1ccccc1)(C2)C3 [compound 10, 1,1-dibenzylamino-3,5-dimethyl-7-hydroxy-adamantane]
effect on precontracted blood vessel ([1]; FIG. 8): either no effect or slight contractions of blood vessels; also recorded: either no effect or slight blood vessel contractions

CC12CC3CC(C)(C1)CC(N)(C3)C2 [memantine]
parenchymal levels in the brain [2]: 1 to 10 µM
